{"source": "patent US20240358705A1", "about": "“COMPOSITIONS AND METHODS FOR TREATMENT OF CANCER” (Board of Supervisors of Louisiana State University and …, priority 2021, published 2024)", "key": {"[1]": {"test_system": "cytochrome family of enzymes", "settings": "cited from earlier work"}, "[2]": {"test_system": "CD3 T cells", "experiment": "Cytokine/chemokine quantification (Milliplex)", "format": "cell-based, mouse", "settings": "72 hours", "method": "Lymph nodes and spleen were isolated from wild-type C57BL/6N mice. Tissue was mechanically dissociated with the back of a syringe plunger and passed through a […] filter. […] Treated cells were incubated at 37° C., 5% CO2 for the designed study duration. […] Culture supernatant was harvested and clarified by centrifugation at 2000 RPMI for five minutes. […] Cytokines and chemokines were quantified using a Milliplex mouse cytokine/chemokine magnetic bead panel (Millipore […]32) on a Luminex MAGPIX system with undiluted samples following the manufacturer's instructions."}, "[3]": {"test_system": "CD8 T cells", "experiment": "Single-cell RNA sequencing", "format": "cell-based, mouse", "settings": "10 μM, 16 hours", "method": "Treated CD8 T cells were prepared following the in vitro T cell activation method and incubated for 16 hours at 37° C., […]. Treated T cells were mixed with treated BM-MDSCs at a […] (T cell): 30% (BM-MDSC) ratio moments before analysis. 10,000 cells with greater than 90% viability were used in the analysis at a concentration of 1,000 cells/μl. Barcoded cDNA libraries were prepared using a chromium next GEM single-cell 3′ reagent kit v3.1 (10× Genomics #1000127) following the manufacturer's instructions. […] (Agilent, Santa Clara, CA) DNA was subsequently quantified by fluorometry using a Qubit dsDNA high sensitivity assay kit (Invitrogen #Q32854). DNA libraries were pooled in equimolar ratios and sequenced using an Illumina NextSeq 500 (Illumina, San Diego, CA) following 10× Genomics' instructions. […] Doublets were subsequently removed using DoubletFinder (https://github.com/chris-mcginnis-ucsf/DoubletFinder). An unsupervised clustering and plotting using UMAPs was completed on the remaining cells. CD8 T cells were identified by first conducting CD3 followed by CD8 refinement and reclustering. To characterize the CD8 subsets, the top 50 differentially expressed genes between each subcluster were compared against publicly available datasets, and known genes associated with activation, exhaustion, and memory T cell states. To determine changes in metabolism and cytotoxicity, a curated list of genes associated with glucose, fatty acid, lipid metabolism, and cytotoxicity were generated. Average gene expression by treatment group was determined for each gene and visualized by heatmap."}, "[4]": {"test_system": "B16", "experiment": "In vivo adoptive cellular transfer, pmel-I, B16 tumor", "design": "species or system mouse", "settings": "T cells pre-treated with 10 μM; B16 tumor bearing mice; vs sham and DMSO pre-treated", "method": "C57BL/6N mice were injected with 3×10^5 B16-OVA or B16 subcutaneously in the right flank. Five days after injection, mice were administered 200 μg cyclophosphamide monohydrate (Sigma #C73971G) dissolved in PBS by intraperitoneal injection to induce minor lymphodepletion. 48 hours after lymphodepletion, mice were intravenously adoptively transferred 2.5×10^6 CD8 OT-I or CD8 […] pre-treated ex vivo following the in vitro T cell activation method. Tumor growth rates were determined by tumor volume measurement beginning on day four and continuing three times per week for the study duration. Tumor volumes were determined by the ellipsoid formula: [(Length×Width^2)/2]. At the end of study, tumors were either fixed in 10% formalin or dissociated into a single-cell suspension for flow cytometry. Single-cell suspension was performed by chopping tumor tissue with scissors followed by a 30-minute incubation at 37° C. with 100 µg/ml DNase I (Roche #10104159001) and 0.5 U/ml Liberase (Roche #05401127001) in PBS. Solution was then diluted with cRPMI-1640 and passed through a 70 μm cell strainer, pelleted and resuspended in ACK lysis buffer to remove erythrocytes. Cells were then counted, filtered through a 70 μm cell strainer, and 10×10^6 cells were aliquoted and stained following the immune profiling by flow cytometry method."}, "[5]": {"test_system": "B16-OVA", "experiment": "In vivo therapeutic vaccination and tumor analysis", "design": "species or system mouse", "settings": "30 mg/kg orally, with SIINFEKL in IFA vaccination and boosts", "method": "C57BL/6N mice were injected with 3×10^5 B16-OVA subcutaneously in the right flank. Five days after injection, mice were administered 200 μg cyclophosphamide dissolved in PBS by intraperitoneal injection to induce minor lymphodepletion. 48 hours after lymphodepletion, mice were intravenously adoptively transferred 2.5×10^6 labeled CD8 OT-I T cells. […]. Tumor growth rates were determined by tumor volume measurement beginning on day four and continuing three times per week for the study duration. Tumor volumes were determined by the ellipsoid formula: [(Length×Width^2)/2]."}, "[6]": {"test_system": "CD8 T cells", "experiment": "Quantitative PCR of glycolysis enzymes", "format": "cell-based, mouse", "settings": "3 μM and 10 μM, 48 hours", "method": "(§1) Lymph nodes and spleen were isolated from wild-type C57BL/6N mice. Tissue was mechanically dissociated with the back of a syringe plunger and passed through a 70 M filter. […] Treated cells were incubated at 37° C., 5% CO2 for the designed study duration."}, "[7]": {"settings": "three separate models of NASH; cited from earlier work"}, "[8]": {"test_system": "CD4 T cells", "experiment": "CD4 T cell activation markers by flow cytometry", "format": "cell-based, mouse", "settings": "72 hours", "method": "as §1, with “duration. […] After staining, cells were pelleted, resuspended and run by a BD FACSymphony A3 flow cytometer.” for “duration.”"}}, "data": [{"compound": "O=c1nc(OC[C@@H]2COCCO2)cc2n1CCc1cc(C#CC3CC3)ccc1-2", "note": "[GLPG1205, 9-Cyclopropylethynyl-2-((S)-1-[1,4]dioxan-2-ylmethoxy)-6,7-dihydropyrimido[6,1-a]isoquinolin-4-one]", "values": [{"measurement": "interaction with the cytochrome family of enzymes", "setting": "[1]", "result": "strong safety profiles"}, {"measurement": "Eotaxin (CCL11) levels, increase vs DMSO", "setting": "[2]; 3 μM", "result": 19.87, "unit": "%"}, {"measurement": "G-CSF, increase vs DMSO", "setting": "[2]; 3 μM", "result": 16.64, "unit": "%"}, {"measurement": "GM-CSF, increase vs DMSO", "setting": "[2]; 3 μM", "result": 32.93, "unit": "%"}, {"measurement": "IL-1P, increase vs DMSO", "setting": "[2]; 3 μM", "result": 20.06, "unit": "%"}, {"measurement": "IL-2 production, increase vs DMSO", "setting": "[2]; 3 μM", "result": 51.36, "unit": "%"}, {"measurement": "IL-3 secretion, increase vs DMSO", "setting": "[2]; 3 μM", "result": 31.91, "unit": "%"}, {"measurement": "IL-4 secretion, increase vs DMSO", "setting": "[2]; 3 μM", "result": 26.55, "unit": "%"}, {"measurement": "IL-6, increase vs DMSO", "setting": "[2]; 3 μM", "result": 30.71, "unit": "%"}, {"measurement": "IL-9, increase vs DMSO", "setting": "[2]; 3 μM", "result": "did not elicit any significant changes"}, {"measurement": "IL-10, increase vs DMSO", "setting": "[2]; 3 μM", "result": 52.24, "unit": "%"}, {"measurement": "IL-12(p40) levels, increase vs DMSO", "setting": "[2]; 3 μM", "result": 16.99, "unit": "%"}, {"measurement": "IL-15 secretion, increase vs DMSO", "setting": "[2]; 3 μM", "result": 16.91, "unit": "%"}, {"measurement": "IP-10 (CXCL10) secretion, increase vs DMSO", "setting": "[2]; 3 μM", "result": 28.52, "unit": "%"}, {"measurement": "KC (CXCL1) concentrations, increase vs DMSO", "setting": "[2]; 3 μM", "result": 19.27, "unit": "%"}, {"measurement": "LIF, increase vs DMSO", "setting": "[2]; 3 μM", "result": 41.71, "unit": "%"}, {"measurement": "TNFα, increase vs DMSO", "setting": "[2]; 3 μM", "result": 39.64, "unit": "%"}, {"measurement": "VEGF, increase vs DMSO", "setting": "[2]; 3 μM", "result": 51.99, "unit": "%"}, {"measurement": "Eotaxin (CCL11) levels, increase vs DMSO", "setting": "[2]; 10 μM", "result": 16.57, "unit": "%"}, {"measurement": "G-CSF, increase vs DMSO", "setting": "[2]; 10 μM", "result": 26.52, "unit": "%"}, {"measurement": "IL-2 production, increase vs DMSO", "setting": "[2]; 10 μM", "result": 31.1, "unit": "%"}, {"measurement": "IL-3 secretion, increase vs DMSO", "setting": "[2]; 10 μM", "result": 38.29, "unit": "%"}, {"measurement": "IL-4 secretion, increase vs DMSO", "setting": "[2]; 10 μM", "result": "did not elicit an effect"}, {"measurement": "IL-6, increase vs DMSO", "setting": "[2]; 10 μM", "result": 28.38, "unit": "%"}, {"measurement": "IL-9, increase vs DMSO", "setting": "[2]; 10 μM", "result": 19.94, "unit": "%"}, {"measurement": "IL-10, increase vs DMSO", "setting": "[2]; 10 μM", "result": 58.46, "unit": "%"}, {"measurement": "IL-12(p40) levels, increase vs DMSO", "setting": "[2]; 10 μM", "result": 21.77, "unit": "%"}, {"measurement": "IL-15 secretion, increase vs DMSO", "setting": "[2]; 10 μM", "result": 15.05, "unit": "%"}, {"measurement": "IP-10 (CXCL10) secretion, increase vs DMSO", "setting": "[2]; 10 μM", "result": 73.65, "unit": "%"}, {"measurement": "KC (CXCL1) concentrations, increase vs DMSO", "setting": "[2]; 10 μM", "result": 25.62, "unit": "%"}, {"measurement": "LIF, increase vs DMSO", "setting": "[2]; 10 μM", "result": 52.21, "unit": "%"}, {"measurement": "LIX (CXCL5), increase vs DMSO", "setting": "[2]; 10 μM", "result": 20.94, "unit": "%"}, {"measurement": "MCP-1 (CCL2), increase compared to DMSO control", "setting": "[2]; 10 μM", "result": 21.29, "unit": "%"}, {"measurement": "RANTES (CCL5), increase vs DMSO", "setting": "[2]; 10 μM", "result": 29.8, "unit": "%"}, {"measurement": "TNFα, increase vs DMSO", "setting": "[2]; 10 μM", "result": 50.91, "unit": "%"}, {"measurement": "VEGF, increase vs DMSO", "setting": "[2]; 10 μM", "result": 71.18, "unit": "%"}, {"measurement": "average expression of genes of glucose, fatty acid, lipid metabolism and cytotoxicity (heatmap)", "setting": "[3]", "result": "dramatic increase in gene expression"}, {"measurement": "total number of CD8 T cells compared to DMSO control", "setting": "[3]", "result": "increase in total CD8"}, {"measurement": "fraction of CD8 T cells identified as naïve", "setting": "[3]; DMSO 26.6%", "result": 16.2, "unit": "%"}, {"measurement": "fraction of CD8 T cells identified as early-effector", "setting": "[3]; DMSO 27.8%", "result": 41.3, "unit": "%"}, {"measurement": "fraction of CD8 T cells identified as effector", "setting": "[3]; DMSO 45.6%", "result": 42.5, "unit": "%"}, {"measurement": "tumor growth rate after adoptive transfer of pre-treated pmel-I CD8 T cells", "setting": "[4]", "result": "significant reduction in the tumor growth rate"}, {"measurement": "anti-tumor response (tumor growth rates) compared to the MC control group", "setting": "[5]", "result": "significantly stronger anti-tumor response"}, {"measurement": "gene expression of enzymes in glycolytic pathway compared to DMSO control", "setting": "[6]", "result": "significant dose-dependent increase"}, {"measurement": "macrophage accumulation", "setting": "[7]", "result": "significant decrease in macrophage accumulation"}, {"measurement": "CD25 expression, increase vs DMSO", "setting": "[8]; 3 μM", "result": 14.28, "unit": "%"}, {"measurement": "CTLA4 expression, increase vs DMSO", "setting": "[8]; 3 μM", "result": 30.31, "unit": "%"}, {"measurement": "CD25 expression, increase vs DMSO", "setting": "[8]; 10 μM", "result": 11.37, "unit": "%"}, {"measurement": "CTLA4 expression, increase vs DMSO", "setting": "[8]; 10 μM", "result": 51.16, "unit": "%"}]}]}
